For data set [1], the system named is OVCAR-3 cells. Put plainly: Cellular uptake by fluorescence microscopy in OVCAR-3 cells. In kind it is cell-based, human. Conditions: 4 hours, equivalent to 50 mg/mL DOX. On the procedure:
The cellular uptake of the stimuli-responsive multifunctional nanoparticle of the present invention and the intracellular drug delivery were investigated by fluorescence microscopy. Human ovarian cancer cells OVCAR-3 and mouse embryonic fibroblasts NIH3T3 were cultured to 70-80% confluence and seeded onto 4-well chamber slides (BD Falcon, USA) at a density of 1×10^5 cells/well. After incubation at 37° C. for 24 hours, DOX.HCl, the HA-cys-ADOX nanoparticles (referred to as HA NPs), or the LHRH-HA-cys-ADOX nanoparticles (referred to as LHRH NPs) dissolved in DMEM at concentrations equivalent to 50 mg/mL DOX was added to the cells for a 2-hour incubation at 37° C. Cells treated with DMEM were the negative control group (NC). Next, fluorescent dyes Lysotracker Green and DAPI in DMEM were sequentially added to the abovementioned cells to stain endosome/lysosome for 2 hours and nuclei for 1 hour. After all the reagents were removed, the cells were washed with PBS (pH 7.4) three times, followed by addition of a mounting medium to fix the cells and prevent fluorescence fading. Cells were examined using a fluorescent microscope (Zeiss, Germany).

Data set [2] has as its system OVCAR-3/luc orthotopic ovarian tumor. Put plainly: Anti-tumor effect in orthotopic ovarian tumor xenograft model, ROI size by bioluminescence imaging. Format: in vivo, nude mice. Conditions: day 20, dose equivalent to 5 mg/kg of DOX via tail vein. From the text: The orthotopic human ovarian cancer xenograft model was established using 6-8 week old female athymic nude mice purchased from National Laboratory Animal Center (Taipei, Taiwan). All mouse procedures were approved by the Institutional Animal Care and Use Committee (IACUC) of National Tsing Hua University. Prior to surgery, the mouse was laid dorsal side up under anesthetic. The incision was made left or right of the midline and directly above the ovarian fat pad. The ovarian fat pad was gently pulled out and rested onto a sterile saline soaked gauze pad. Under a dissecting microscope, the ovary was allowed for the insertion of a 30 gauge needle into the bursa. Suspension (1×10^6) of OVCAR-3/luc cells in a maximum volume of […] was slowly injected between the bursa and the ovary. […]
Growth of tumor was monitored by bioluminescence imaging (BLI) using in vivo imaging system (Caliper Life Sciences). […] Prior to being monitored, the tumor-implanted mice were injected intraperitoneally with 150 mg/kg of D-luciferin substrate. The Regions of Interest (ROIs) in tumor area were selected and used for quantification of tumor size by the software provided by the Caliper Life Sciences. Volumes or sizes of ROIs were calculated as L×W^2/2, where L was the largest and W was the smallest diameter of each ROI. […]

Data set [3] shares this test system. Put plainly: TUNEL staining of ovarian tumor sections. Format: in vivo, nude mice. To be noted: after 20 days of treatment. On the procedure: (§1) Tumors and normal ovaries from mice with different treatments were collected for histological assay after mice were sacrificed. […] paraffin tissue sections were prepared for analysis. Morphology of tumors and normal ovaries were examined by haematoxylin and eosin (H&E) staining. TUNEL staining were used for the live/dead assay in the tissue sections using DeadEnd™ Fluorometric TUNEL System (Promega, USA). Tissue sections were examined at magnification of 400× using fluorescent microscope (Zeiss, Germany).
(§2) The therapeutic effect of the stimuli-responsive multifunctional nanoparticle of the present invention on ovarian cancer cells was further analyzed histologically after the mice were treated differently as mentioned above for 20 days and sacrificed.

The test system is the same in data set [4]. Put plainly: H&E staining of ovarian tumor sections. Conditions: after 20 days of treatment. Format: in vivo, nude mice. The protocol:
as §1, §2

The next data set relates to NIH3T3 cells. Briefly: Cell viability (MTS assay) in NIH3T3 cells. Format: cell-based, mouse. Conditions: NIH3T3, 48 hours, various concentrations. On the procedure: (§3) The cytotoxicity and anticancer effect of the stimuli-responsive multifunctional nanoparticle of the present invention was evaluated by cell viability assay in NIH3T3 and OVCAR-3 cells. The cells were seeded in a 96-well plate at a density of 5×10^3 cells/well and incubated at 37° C. for 24 hours. Next, DOX.HCl, the HA-cys-ADOX nanoparticles, or the LHRH-HA-cys-ADOX nanoparticles dissolved in DMEM at predetermined concentrations equivalent to DOX was added to the cells. Cells treated with DMEM were the negative control group. After incubation at 37° C. for 48 hours, the cells were washed with PBS (pH 7.4). Cell viability was measured by MTS assay (CellTiter 96® AQueous One Solution Cell Proliferation Assay (Promega, USA)) according to the manufacturer's instructions and calculated as the ratio of light absorbance at […] of the experimental group to that of the negative control group.
A general note: Tetrazolium assays rely on reduction of a dye to a coloured formazan, in cell work by metabolically active cells.

The test system of data set [5] is OVCAR-3 cells. Put plainly: Cell viability (MTS assay) in OVCAR-3 cells. Format: cell-based, human. To be noted: OVCAR-3, 48 hours, various concentrations. The protocol: as §3

`COc1cccc2c1C(=O)c1c(O)c3c(c(O)c1C2=O)C[C@@](O)(C(=O)CO)C[C@@H]3O[C@H]1C[C@H](N)[C@H](O)[C@H](C)O1.Cl` [free DOX, doxorubicin hydrochloride]: in the data set with OVCAR-3 cells [1], the “difference in intensity of intracellular DOX fluorescence between OVCAR-3 and NIH3T3 cells” value is recorded as “no difference”. In data set [2], the “ROI size relative to that of the LHRH-NPs/Cy5.5-treated mice” value amounted to 4.3 fold. The “TUNEL fluorescence signal (apoptotic cells) in tumors” value in data set [3] was “no significant TUNEL fluorescence signal”. Further, in data set [4], the “tumor cell morphology (H&E staining)” value is given as “cell proliferation with dense nuclei in random pattern”. Also, in the data set on NIH3T3 cells, the cytotoxicity entry was “dose-dependent”. Also, in the data set on OVCAR-3 cells [5], the “cytotoxicity / anticancer effect” value is on record as “dose-dependent”.

(Values after patent publication US10117837B2, “Methods of preparing stimuli-responsive multifunctional nanoparticles” (priority 2017, dated 2018).)
